Experiments:
[1] = tested on: ras-transformed fibroblasts (ras 3T3 cells); assay: MTS-based cell-viability assay, control cells (FIG. 3B); conditions: for survival (viable surviving fraction): MTS assay at day 5, over the dose range examined; for effect on cell growth: singly or together
Protocol: Screening Assay. […] Cells were plated and attached overnight in growth media consisting of DMEM with 10% fetal bovine serum (FBS). […] Media with agents was replaced every 48 hours. At day 5 and 8, media was withdrawn and cells were fixed and stained in 0.5% crystal violet in 70% methanol. The crystal violet stained cells reveal a dense intact monolayer in media absent either agent. […] This observed synergistic effect is an important finding in the treatment of diseases characterized by hyperproliferation of cells. […] For cell-counting assays, 5×10^3 cells were plated in triplicate in 100 mm cell culture dishes and allowed to attach overnight as above in DMEM+10% FBS and treated with agents in DMEM+5% PPP. Media and agents were replaced every 48 hours. At day 5 cells were trypsinized and counted with hemacytometer.
For the MTS-based cell-viability assay, 5×10^3 cells were plated in 24 well dishes overnight in DMEM+10% FBS. […] Each condition was assayed in triplicate. Media and agents were replaced every 48 hours and viable surviving fraction estimated using the MTS assay at day 5 following treatment.

[2] = tested on: simian sarcoma virus-transformed NIH/3T3 (sis 3T3) fibroblast cells; assay: Screening assay, crystal violet staining of cells in 12-well dishes (FIG. 1); format: cell-based; conditions: single agent in increasing amounts (STI-571 0-3 μM; ADW 0-1 μM), DMEM+5% PPP, crystal violet at day 5 and 8
Protocol: Screening Assay. […] Cells were plated and attached overnight in growth media consisting of DMEM with 10% fetal bovine serum (FBS). […] Media with agents was replaced every 48 hours. At day 5 and 8, media was withdrawn and cells were fixed and stained in 0.5% crystal violet in 70% methanol. […] For cell-counting assays, 5×10^3 cells were plated in triplicate in 100 mm cell culture dishes and allowed to attach overnight as above in DMEM+10% FBS and treated with agents in DMEM+5% PPP. Media and agents were replaced every 48 hours. At day 5 cells were trypsinized and counted with hemacytometer.

[3] = tested on: chronic myeloid leukemia and gastrointestinal stromal tumours; conditions: humans; cited from earlier work

Structure (SMILES)	survival (viable surviving fraction) [1]	effect on cell growth [1]	density of cells in the monolayer [2]	efficacy in treating chronic myeloid leukemia and gastrointestinal stromal tumours [3]
Nc1ncnc2c1c(-c1cccc(OCc3ccccc3)c1)cn2[C@H]1C[C@H](CN2CCCC2)C1 [ADW, trans-5-(3-benzyloxy-phenyl)-7-(3-pyrrolidin-1-ylmethyl-cyclobutyl)-7H-pyrrolo[2,3-d]pyrimidin-4-ylamine]	decreased survival	little effect	–	–
Cc1ccc(NC(=O)c2ccc(CN3CCN(C)CC3)cc2)cc1Nc1nccc(-c2cccnc2)n1 [STI-571]	no effect on survival	little effect	visibly depleted	effective
